{"source": "patent US8759364B2", "about": "“Methods of treating bone mass diseases” (The Trustees of Columbia University in the City of New York, priority 2008, dated 2014)", "test_system": "peripheral serotonin", "test": "Effect of oral CBMIDA on peripheral serotonin production in mice (serum serotonin ELISA), Example 1", "assay_type": "in vivo", "procedure": "The ability of selective TPH1 inhibitor CBMIDA to reduce peripheral serotonin measured in serum was tested. Either 250 or 500 mg/kg doses of CBMIDA were administered orally twice in 20 hours to 4 week old mice, 4-5 mice per group. As a control, some mice were untreated and some received 250 mg/kg pCPA orally. […] CBMIDA has been reported to be an EDTA analog that increases osteoid volume in beagle dogs and induces proliferation of rat calvarial-derived osteoblasts in vitro (Xie, et al., Bioorganic & Medicinal Chemistry Letters 15 (2005) 3267-3270, incorporated herein by reference in its entirety).\nOne month old C57Bl/6 inbred male mice, weighing 15-16 g were used in the experiments. Animals were housed under 12 h light/12 h dark conditions in a room with controlled temperature (22° C.) and humidity (60%). Mice had ad libitum access to food and water, and were used after a minimum of 4 days of acclimatization to the housing conditions. All experiments were conducted following Columbia University Guidelines for the Animal Use and Care of laboratory mice.\nBefore the experiments, animals were separated into individual cages one day prior to the experiment. Compounds were fed orally (gavage) to the mouse, calculated according to the weight of the mouse, twice a day at 1700 h and at 1100 h. […] This route created two potential barriers for the compound to reach the brain. […] Control animals received the same volume of vehicle. Blood was collected through heart puncture on isofluorane-anaesthesized animals and allowed to clot for 5 minutes on ice. The serum was separated, snap chilled in liquid nitrogen and frozen at −80° C. till analyzed. Brainstems from all the animals were collected and processed for brain serotonin measurement through HPLC.\nThe Serotonin ELISA kit obtained from the Fitzgerald company was used to measure derivatized serotonin from serum. Derivatization is part of the sample preparation. Serotonin present in the serum was first quantitatively acylated into N-Acylserotonin using the acylation reagent. The principle of the assay is based on competitive ELISA, wherein serotonin that is bound to the solid phase of the plate and the N-acylserotonin compete for the fixed number of antiserum binding sites. When the reaction is in equilibrium, free antigen and free antigen-antiserum complexes are removed by washing.\nThe antibody bound to the solid phase serotonin is then detected using antirabbit/peroxidase. The substrate TMB/Peroxidase reaction is read at 450 nm. The amount of antibody bound to the solid phase serotonin is inversely proportional to the concentration of serotonin in the sample.\nCatechol-3,6-bis methyleneiminodiacetic acid (CBMIDA) (basic structure is an EDTA-like compound and the catechol ring is at the centre) synthesized at the Columbia University Chemistry division, and para-chlorophenylalanine (pCPA) obtained from Sigma Aldrich Corp. were used. Each compound was dissolved with twice molar solution of NaHCO3 in water and given to mouse orally at 250 and 500 mg/kg/dose."}
{"compound": "NC(Cc1ccc(Cl)cc1)C(=O)O", "note": "(centres unmarked) [pCPA, para-chlorophenylalanine]", "values": [{"measurement": "reduction of peripheral serotonin measured in serum", "setting": "250 mg/kg orally twice in 20 hours, 4 week old mice", "result": "~50", "unit": "%"}, {"measurement": "serum serotonin levels decreased to % below normal range", "setting": "pCPA used as control, oral, FIG. 11", "result": "> 60", "unit": "%"}]}
